The experiment relates to human living fibroblast-derived 253G1 iPS cell strain. The experiment can be described thus: Physical cell length (cell thickness) by reflecting quantitative phase microscope. Format: cell-based. Conditions: 253G1 iPS cells on feeder, medium with 12.5 μM retinoic acid from 2nd day after seeding, further cultured 4 days (differentiated cell). How it is done: On a 35 mm-diameter glass bottom dish with antireflection coating, a human living fibroblast-derived 253G1 iPS cell strain was seeded at 10-20 colonies/dish, and cultured on a feeder using a medium containing a final concentration of 4 ng/mL of human basic fibroblast growth factor (Primate ES Medium, ReproCELL Incorporated, Trade name: RCHEMD001). The size of one colony was approximately 200 μm. For the feeder cell, a mouse lung fibroblast cell was used. The cell was cultured until the 3rd day after the seeding. The medium was exchanged once a day.
The sample for differentiation of the iPS cell was transferred to a medium containing a final concentration of 4 ng/mL of human basic fibroblast growth factor and 12.5 μM of retinoic acid (Primate ES Medium) on the 2nd day after the seeding, and further cultured for 4 days. Generally, retinoic acid is used as a reagent for inducing differentiation. […]
For the cells in a 60 μm×80 μm visual field, three-dimensional data was obtained at intervals of 0.125 μm in horizontal direction and 0.32 μm in vertical direction using a reflecting quantitative phase microscope, and a tomographic image was produced from the obtained data. […] From the obtained bottom and surface shapes, a cell thickness (physical length) was measured to calculate a mean value.

Turning to `CC1=C(/C=C/C(C)=C/C=C/C(C)=C/C(=O)O)C(C)(C)CCC1` [retinoic acid], the “Mean value of the physical cell length” value is listed as 6.25 μm.

These data come from US20150219543A1, “CELL EVALUATION METHOD” (HAMAMATSU PHOTONICS K.K., priority 2014, published 2015).
